Test results from US20240116985A1, “STAPLED PEPTIDES AND METHODS THEREOF” (priority 2020, published 2024).
Like-named read-outs stand apart in the source and are kept apart here.

Experiments:
[1] = biological target: T1, full-length beta-Catenin (Uniprot ID P35222) (Homo sapiens, UniProt P35222); assay: Fluorescence polarization IC50 (beta-catenin / 5FAM-TCF4 10-53 competition); assay type: binding
T1 construct: 10 nM full-length beta-Catenin (Uniprot ID P35222)
T1 sequence (P35222 1-781): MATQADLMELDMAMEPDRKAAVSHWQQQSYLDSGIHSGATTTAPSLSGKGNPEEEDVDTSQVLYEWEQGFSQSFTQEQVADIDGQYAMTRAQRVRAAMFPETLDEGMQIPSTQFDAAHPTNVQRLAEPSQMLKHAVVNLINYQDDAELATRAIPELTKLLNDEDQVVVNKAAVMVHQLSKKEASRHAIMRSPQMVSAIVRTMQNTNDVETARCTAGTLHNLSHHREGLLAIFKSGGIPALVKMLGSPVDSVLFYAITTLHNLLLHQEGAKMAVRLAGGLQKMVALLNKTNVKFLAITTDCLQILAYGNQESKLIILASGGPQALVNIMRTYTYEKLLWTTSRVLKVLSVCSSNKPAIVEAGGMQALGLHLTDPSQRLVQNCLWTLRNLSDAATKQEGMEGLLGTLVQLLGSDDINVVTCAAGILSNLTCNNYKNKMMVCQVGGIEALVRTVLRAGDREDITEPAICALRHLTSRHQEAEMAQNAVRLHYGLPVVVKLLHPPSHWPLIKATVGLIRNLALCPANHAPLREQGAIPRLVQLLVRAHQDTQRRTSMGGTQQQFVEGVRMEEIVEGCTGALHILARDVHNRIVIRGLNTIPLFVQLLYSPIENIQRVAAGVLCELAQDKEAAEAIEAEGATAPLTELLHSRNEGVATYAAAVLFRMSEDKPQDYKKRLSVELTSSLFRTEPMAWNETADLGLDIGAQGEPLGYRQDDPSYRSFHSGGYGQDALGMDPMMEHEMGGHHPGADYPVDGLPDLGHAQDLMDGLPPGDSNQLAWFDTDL

[2] = CHI Log D procedure; assay type: physicochemical; settings: for chromatographic logD: pH 7.4, CHI Log D; for CHI Log D: pH 7.4
[3] = biological target: T2, full-length B-Catenin (Uniprot ID P35222) (Homo sapiens, UniProt P35222); assay: Alphascreen binding assay (beta-catenin / biotin-TCF4 10-53)
T2 construct: 65 nM full-length B-Catenin (Uniprot ID P35222)
T2 sequence (P35222 1-781): T1 sequence (P35222 1-781)
In short: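 AlphaScreen (Ni-chelate beads) competition in 50 mM Tris pH 8.0, 250 mM NaCl with detergents and 0.1% BSA. Peptide titrated 10 uM–5 nM against 65 nM human β-catenin bound to 10 nM biotinylated TCF4 10-53, 15 min then 60 min with beads, both at 20 °C; 1:1 Hill-slope fit.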

[4] = Table E2-1, read-out: beta-Catenin FP IC50
[5] = fluorescence polarization, beta-catenin, read-out: FP EC50

Row | Compound | IC50 [1, 4] [nM] | chromatographic logD [2] | EC50 [3] [nM] | IC50 [1, 5] [nM] | CHI Log D [2]
1 | CC(=O)N1CCC[C@]12CC=CCCCC1(CCCC=CCCCCCC[C@@](C)(C(=O)N[C@@H](Cc3ccccc3)C(=O)N[C@@H](Cc3csc4ccccc34)C(=O)N[C@@H](CCC(N)=O)C(N)=O)NC(=O)[C@H](C(C)C)NC(=O)[C@H](Cc3ccccc3)NC(=O)[C@H](C)NC(=O)[C@H](C)NC(=O)[C@H](CCC(=O)O)NC(=O)[C@H](CC(=O)O)NC1=O)NC(=O)[C@H](C)NC(=O)[C@H](CC(=O)O)NC2=O (stereo partly drawn) [I-144, Ac-PL3-Asp-Ala-B5-Asp-Glu-Ala-Ala-Phe-Val-S8-Phe-BztA-Gln-NH2] | 147 | 2.12 | 66 |  | 
2 | CC(=O)N1CCC[C@]12CC=CCCCC1(CCCC=CCCCCCC[C@@](C)(C(=O)N[C@@H](Cc3ccccc3)C(=O)N[C@@H](Cc3csc4ccccc34)C(=O)N[C@@H](CCC(N)=O)C(N)=O)NC(=O)[C@H](CCC(N)=O)NC(=O)[C@H](Cc3ccccc3)NC(=O)[C@H](C)NC(=O)[C@H](C)NC(=O)[C@H](Cc3ccc4ccccc4c3)NC(=O)[C@H](CC(=O)O)NC1=O)NC(=O)[C@H](C)NC(=O)[C@H](CC(=O)O)NC2=O (stereo partly drawn) [I-295, Ac-PL3-Asp-Ala-B5-Asp-2NapA-Ala-Ala-Phe-Gln-S8-Phe-BztA-Gln-NH2] | 5000 | 2.66 | 1180 |  | 
3 | CC(=O)N1CCC[C@]12CC=CCCCC1(CCCC=CCCCCCC[C@@](C)(C(=O)N[C@@H](Cc3ccccc3)C(=O)N[C@@H](Cc3c[nH]c4ccccc34)C(=O)N[C@@H](C)C(N)=O)NC(=O)[C@H](C(C)C)NC(=O)[C@H](Cc3ccccc3)NC(=O)[C@H](C)NC(=O)[C@H](C)NC(=O)[C@H](CC(=O)O)NC(=O)[C@H](CC(=O)O)NC1=O)NC(=O)[C@H](C)NC(=O)[C@H](CC(=O)O)NC2=O (stereo partly drawn) [I-292, Ac-PL3-Asp-Ala-B5-Asp-Asp-Ala-Ala-Phe-Val-S8-Phe-Trp-Ala-NH2] | 1870 |  | 187 | 1870 | 2.208
4 | CC[C@H](C)[C@@H]1NC(=O)[C@H](CC(=O)O)NC(=O)[C@]2(CC=CCCCC3(CCCC=CCCCCCC[C@@](C)(C(=O)N[C@@H](Cc4ccccc4)C(=O)N[C@@H](Cc4c[nH]c5ccccc45)C(=O)N[C@@H](Cc4c[nH]cn4)C(N)=O)NC(=O)[C@H](CCC(N)=O)NC(=O)[C@H](Cc4ccccc4)NC(=O)[C@H](C)NC(=O)[C@H](C)NC(=O)[C@H](CC(=O)O)NC(=O)[C@H](CC(=O)O)NC3=O)NC1=O)CCCN2C(C)=O (stereo partly drawn) [I-174, Ac-PL3-Asp-Ile-B5-Asp-Asp-Ala-Ala-Phe-Gln-S8-Phe-Trp-His-NH2] | 1760 |  | 116 | 1760 | 2.242
5 | CC(=O)N1CCC[C@]12CC=CCCCC1(CCCC=CCCCCCC[C@@](C)(C(=O)N[C@@H](Cc3ccccc3F)C(=O)N[C@@H](Cc3c[nH]c4ccccc34)C(=O)N[C@@H](CCC(N)=O)C(N)=O)NC(=O)[C@H](C(C)C)NC(=O)[C@H](Cc3ccccc3)NC(=O)[C@H](C)NC(=O)[C@H](C)NC(=O)[C@H](CC(=O)O)NC(=O)[C@H](CC(=O)O)NC1=O)NC(=O)[C@H](C)NC(=O)[C@H](CC(=O)O)NC2=O (stereo partly drawn) [I-319, Ac-PL3-Asp-Ala-B5-Asp-Asp-Ala-Ala-Phe-Val-S8-2FF-Trp-Gln-NH2] | 1420 |  | 54 | 1420 | 2.019
6 | CC[C@H](C)[C@@H]1NC(=O)[C@H](CC(=O)O)NC(=O)[C@]2(CC=CCCCC3(CCCC=CCOC(=O)N(C)CCC[C@@](C)(C(=O)N[C@@H](Cc4ccccc4)C(=O)N[C@@H](Cc4c[nH]c5ccccc45)C(=O)N[C@@H](Cc4c[nH]cn4)C(N)=O)NC(=O)[C@H](CCC(N)=O)NC(=O)[C@H](Cc4ccccc4)NC(=O)[C@H](C)NC(=O)[C@H](C)NC(=O)[C@H](CC(=O)O)NC(=O)[C@H](CC(=O)O)NC3=O)NC1=O)CCCN2C(C)=O (stereo partly drawn) [I-189, Ac-PL3-Asp-Ile-B5-Asp-Asp-Ala-Ala-Phe-Gln-SeN-Phe-Trp-His-NH2] |  |  | 156 | 1600 | 1.611
7 | CC[C@H](C)[C@@H]1NC(=O)[C@H](CC(=O)O)NC(=O)[C@]2(CC=CCCCC3(CCCC=CCOC(=O)N(C)CCC[C@@](C)(C(=O)N[C@@H](Cc4ccccc4)C(=O)N[C@@H](Cc4c[nH]c5ccccc45)C(=O)N[C@@H](Cc4c[nH]cn4)C(N)=O)NC(=O)[C@H](CCC(N)=O)NC(=O)[C@H](Cc4ccccc4)NC(=O)[C@H](C)NC(=O)[C@H](C)NC(=O)[C@H](CC(=O)O)NC(=O)[C@H](CC(=O)O)NC3=O)NC1=O)CCCN2C(C)=O (stereo partly drawn) [I-188, Ac-PL3-Asp-Ile-B5-Asp-Asp-Ala-Ala-Phe-Gln-SeN-Phe-Trp-His-NH2] | 1600 |  | 156 | 1600 | 1.611
